EP0146155A1, “Ether of N-propanolamine derivative” (AKZO N.V., priority 1983, dated 1985)

Experiments:
rat = assay: arrhythmogenic activity under specific hypokalaemic conditions in the rat; assay type: in vivo
patients = settings: clinical use; predominantly elderly patients, often hypokalaemic conditions; cited from earlier work
calcium = assay: calcium-antagonistic activity (measure for anti-anginal activity); settings: compared with either the racemate or the levo-rotatory isomer
anti-arrhythmic potency = settings: compared with the racemate and the levo-rotatory isomer
[1] = QTc prolongation in the ECG (electrocardiogram); assay type: in vivo
solubility in water = assay type: physicochemical; settings: compared with the racemate

CC(C)COCC(CN(Cc1ccccc1)c1ccccc1)N1CCCC1 (racemic) [racemate, bepridil, reference compound]
arrhythmogenic activity (rat): exacerbates arrhythmias
rhythm disturbance of the ventricular tachycardia type (patients): in rare cases been attended by a self limiting rhythm disturbance of the so-called ventricular tachycardia type

CC(C)COC[C@@H](CN(Cc1ccccc1)c1ccccc1)N1CCCC1 [R-(dextro-rotatory) isomer, R-β-[(2-methylpropoxy)-methyl]-N-phenyl-N-(phenylmethyl)-l-pyrrolidine-ethanamine]
arrhythmogenic activity (rat): do not possess arrhythmogenic activity
calcium-antagonistic activity (calcium): significant increase of calcium-antagonistic activity
anti-arrhythmic potency (anti-arrhythmic potency): not significantly different
QTc prolongation [1]: does not produce QTc prolongation
solubility in water (solubility in water): much better solubility in water than the racemate
